We go through 1 compound from patent publication US10017791B2, “Coryneform bacterium transformant and process for producing 4-hydroxybenzoic acid or salt thereof using the same” (GREEN PHENOL DEVELOPMENT CO., LTD., priority 2014, dated 2018).

The target in the assay is T1, chorismate-pyruvate lyase of Citrobacter youngae (Citrobacter youngae, UniProt A0ABM8MN84, A17E/A70K/G54A/S20A/T66M).
T1 sequence (A0ABM8MN84 1-165 A17E/S20A/G54A/T66M/A70K): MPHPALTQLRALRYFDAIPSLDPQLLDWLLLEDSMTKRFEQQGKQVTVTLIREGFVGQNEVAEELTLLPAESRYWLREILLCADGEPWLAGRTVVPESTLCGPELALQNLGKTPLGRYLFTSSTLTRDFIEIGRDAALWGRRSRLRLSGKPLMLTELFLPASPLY
The assay is described as follows: Product inhibition of chorismate-pyruvate lyase activity by 4-HBA (IC50). It counts as biochemical. The conditions noted are these: cell lysate supernatant of strain HBA13.

For orientation: IC50 means the concentration needed to halve the response being measured. Read a high IC50 as weaker potency in that assay. As for `O=C(O)c1ccc(O)cc1` [Strain 4-HBA, 4-hydroxybenzoic acid], the concentration for half-maximal inhibition (IC50) is 67 µM.
